As usually defined, the Ki is the equilibrium dissociation constant of an inhibitor or competing ligand from its target. Read a low Ki as tighter binding.

What all share (experiment): Serine Protease Inhibition Assay
The target of test [1] is Prothrombin (Homo sapiens, UniProt P00734). The method, then:
(§1) The enzyme reactions were initiated by the addition of substrate, and the color developed from the release of p-nitroanilide from each chromogenic substrate was monitored continuously for 5 min at 405 nm on a microtiter plate reader. […] The apparent Ki values were then calculated according to the Cheng-Prusoff equation: Ki = IC50/1 + [S]/Km.

The target in test [2] is T1, Coagulation factor VII (Homo sapiens, UniProt P08709).
T1 sequence (P08709 whole entry): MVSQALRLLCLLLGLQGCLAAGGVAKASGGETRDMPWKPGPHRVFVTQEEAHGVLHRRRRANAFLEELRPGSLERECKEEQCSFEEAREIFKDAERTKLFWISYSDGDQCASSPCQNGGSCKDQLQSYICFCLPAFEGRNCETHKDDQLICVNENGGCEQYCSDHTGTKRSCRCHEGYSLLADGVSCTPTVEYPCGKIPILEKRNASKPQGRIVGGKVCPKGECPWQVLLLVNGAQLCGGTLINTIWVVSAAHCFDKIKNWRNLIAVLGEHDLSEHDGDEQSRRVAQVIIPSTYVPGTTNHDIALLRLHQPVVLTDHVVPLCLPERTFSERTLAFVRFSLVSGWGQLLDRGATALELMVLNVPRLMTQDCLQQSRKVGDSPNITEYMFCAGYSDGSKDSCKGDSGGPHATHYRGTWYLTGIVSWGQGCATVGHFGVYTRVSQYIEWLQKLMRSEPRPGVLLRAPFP
The conditions noted are these: pH 7.8; 22 °C. The method, then: as §1

The target of test [3] is T2, Serine protease 1 (Bos taurus, UniProt P00760).
T2 sequence (P00760 whole entry): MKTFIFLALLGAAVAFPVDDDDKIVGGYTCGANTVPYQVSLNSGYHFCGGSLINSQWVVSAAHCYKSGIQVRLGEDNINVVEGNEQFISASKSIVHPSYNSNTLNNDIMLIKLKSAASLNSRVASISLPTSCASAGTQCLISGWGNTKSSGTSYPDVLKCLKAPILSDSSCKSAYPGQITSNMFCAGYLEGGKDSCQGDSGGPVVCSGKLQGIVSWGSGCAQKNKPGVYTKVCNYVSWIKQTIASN
On the procedure:
as §1

Test [4] concerns the target Coagulation factor X (Homo sapiens, UniProt P00742). The method, then: as §1

Coagulation factor X, sequence (P00742 41-179 limits assumed): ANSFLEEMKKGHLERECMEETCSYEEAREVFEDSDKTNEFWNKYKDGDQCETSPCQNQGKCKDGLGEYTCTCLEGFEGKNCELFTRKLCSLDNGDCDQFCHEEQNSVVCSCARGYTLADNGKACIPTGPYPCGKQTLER
Coagulation factor X, sequence (P00742 235-488 limits assumed): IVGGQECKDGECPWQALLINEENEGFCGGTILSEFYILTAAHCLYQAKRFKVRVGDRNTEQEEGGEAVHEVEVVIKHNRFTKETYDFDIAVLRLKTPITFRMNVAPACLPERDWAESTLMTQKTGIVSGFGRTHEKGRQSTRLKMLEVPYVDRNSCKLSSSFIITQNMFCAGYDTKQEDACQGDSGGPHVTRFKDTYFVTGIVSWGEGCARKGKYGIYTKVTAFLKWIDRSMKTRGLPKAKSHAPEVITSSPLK

Turning to `COc1cc(C(Nc2ccc(C(=N)N)cc2)C(=O)N[C@H](C(=O)O)c2ccccc2)c(C(=O)Cc2ccccc2)cc1OCc1ccccc1` (stereo partly drawn) [(2S)-2-{2-[4-(benzyloxy)-5-methoxy-2-(2-phenylacetyl)phenyl]-2-[(4-carbamimidoylphenyl)amino]acetamido}-2-phenylacetic acid], the Ki in test [1] worked out at 6400 nM; in test [2], 7 nM; in test [3], 80 nM; in test [4], 19000 nM.

As to `COc1cc(C(Nc2ccc(C(=N)N)cc2)C(=O)N[C@H](C(=O)O)c2ccccc2)c(S(=O)(=O)c2ccccc2)cc1OCc1ccccc1` (some centres not stated) [phenylglycine amide compound 10], the Ki was 540 nM in test [1], 50 nM in test [3] and 12400 nM in test [4].

The values are drawn from BindingDB's records for doi:10.1016/j.bmcl.2004.10.092 (F. Hoffmann-La Roche, 2005).
